Assay results as given in patent US8853258B2, “C-linked hydroxamic acid derivatives useful as antibacterial agents” (Pfizer Inc., priority 2009, dated 2014).
In brackets after ≈: the same amount, converted by molar mass.

How the values were obtained:
[1] = target: Pseudomonas aeruginosa LpxC enzyme (Pseudomonas aeruginosa (strain ATCC 15692 / DSM 22644 / CIP 104116 / JCM 14847 / LMG 12228 / 1C / PRS 101 / PAO1), UniProt P47205); test: IC50 Assay, LpxC Enzyme from P. aeruginosa (PA LpxC Enzyme IC50); assay type: biochemical; settings: Table 3; read-out: PA LpxC enzyeme IC^50
Outline: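 Reaction run 1 h then stopped with 1N HCl. Conversion measured by RapidFire high-throughput mass spectrometry. IC50 derived from percent conversion relative to a no-enzyme control.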

[2] = system: Acinetobacter baumanii/haemolyticus: Multidrug-resistant clinical isolate (AB-3167); test: MIC determination (CLSI), AB-3167; assay type: cell-based; settings: Acinetobacter baumannii; Table 3; read-out: AB-3167 MIC
Outline: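 Multidrug-resistant clinical isolate AB-3167 (A. baumannii/haemolyticus) tested for minimum inhibitory concentration following CLSI dilution susceptibility standards M7-A7 and M100-S18.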

[3] = system: Escherichia coli EC-1: VOGEL, mouse virulent; test: MIC determination (CLSI), EC-1; assay type: cell-based; settings: Escherichia coli, read-out: EC-1 MIC
Outline: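 E. coli Vogel, a mouse-virulent strain (EC-1), was tested. MICs were set by dilution susceptibility testing per CLSI standards M7-A7/M100-S18.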

[4] = system: Klebsiella pneumoniae: Ciprofloxacin-resistant isolate, ESBL, clinical isolate (KP-3700); test: MIC determination (CLSI), KP-3700; assay type: cell-based
Outline: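 MIC measured by broth dilution according to CLSI M7-A7 and M100-S18 standards. Test organism was a ciprofloxacin-resistant, ESBL-expressing clinical isolate.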

[5] = system: Pseudomonas aeruginosa UI-18: Wild-type (PA-7); test: MIC determination (CLSI), PA-7; assay type: cell-based; settings: Pseudomonas aeruginosa; Table 3; read-out: PA-7 MIC
Outline: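 MIC by dilution method per CLSI M7-A7 and M100-S18 guidelines. Strain: wild-type Pseudomonas aeruginosa UI-18.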

Row | SMILES | IC50 [1] | MIC [2] | MIC [3] | KP-3700 MIC [4] | MIC [5]
1 | Cc1ccc(OCc2noc(COc3ccc(CCC(C)(C(=O)NO)S(C)(=O)=O)cc3)n2)cc1 (stereo not drawn) [Example 286, N-hydroxy-2-methyl-4-[4-({3-[(4-methylphenoxy)methyl]-1,2,4-oxadiazol-5-yl}methoxy)phenyl]-2-(methylsulfonyl)butanamide] | 11.9 nM | ≥ 64 µg/mL | 32 µg/mL (≈ 65.4 µM) | ≧64 mg/L | ≥ 64 µg/mL
2 | Cc1cccnc1COc1ccc(CCC(C)(C(=O)NO)S(C)(=O)=O)cc1 (stereo not drawn) [Example 287, N-hydroxy-2-methyl-4-{4-[(3-methylpyridin-2-yl)methoxy]phenyl}-2-(methylsulfonyl)butanamide] | 3.14 nM | ≥ 64 µg/mL | ≥ 64 µg/mL | ≧64 mg/L | 16 µg/mL (≈ 40.8 µM)
3 | CC(CCc1ccc(OCc2ccc(OC(F)(F)F)cc2)cc1)(C(=O)NO)S(C)(=O)=O (stereo not drawn) [Example 288, N-hydroxy-2-methyl-2-(methylsulfonyl)-4-(4-{[4-(trifluoromethoxy)benzyl]oxy}phenyl)butanamide] | 1.53 nM | 4 µg/mL (≈ 8.67 µM) | 4 µg/mL (≈ 8.67 µM) | 8 µg/mL | 8 µg/mL (≈ 17.3 µM)
4 | Cc1cccc(Cc2noc(COc3ccc(CCC(C)(C(=O)NO)S(C)(=O)=O)cc3)n2)c1 (stereo not drawn) [Example 289, N-hydroxy-2-methyl-4-(4-{[3-(3-methylbenzyl)-1,2,4-oxadiazol-5-yl]methoxy}phenyl)-2-(methylsulfonyl)butanamide] | 10.4 nM | ≥ 64 µg/mL | 32 µg/mL (≈ 67.6 µM) | ≧64 mg/L | ≥ 64 µg/mL
5 | Cc1nncn1-c1ccc(OCCOc2ccc(CCC(C)(C(=O)NO)S(C)(=O)=O)cc2)cc1 (stereo not drawn) [Example 290, N-hydroxy-2-methyl-2-(methylsulfonyl)-4-(4-{2-[4-(3-methyl-4H-1,2,4-triazol-4-yl)phenoxy]ethoxy}phenyl)butanamide] | 3.56 nM | ≥ 64 µg/mL | 8 µg/mL (≈ 16.4 µM) | 32 µg/mL | ≥ 64 µg/mL
6 | Cc1ccc(F)c(-c2noc(COc3ccc(CCC(C)(C(=O)NO)S(C)(=O)=O)cc3)n2)c1 (stereo not drawn) [Example 291, 4-(4-{[3-(2-fluoro-5-methylphenyl)-1,2,4-oxadiazol-5-yl]methoxy}phenyl)-N-hydroxy-2-methyl-2-(methylsulfonyl)butanamide] | 9.27 nM | ≥ 64 µg/mL | 16 µg/mL (≈ 33.5 µM) | ≧64 mg/L | ≥ 64 µg/mL
7 | CC(C)CCOc1ccc(CCC(C)(C(=O)NO)S(C)(=O)=O)cc1 (stereo not drawn) [Example 292, N-hydroxy-2-methyl-4-[4-(3-methylbutoxy)phenyl]-2-(methylsulfonyl)butanamide] | 1.11 nM | 16 µg/mL (≈ 44.8 µM) | 16 µg/mL (≈ 44.8 µM) | ≧64 mg/L | 8 µg/mL (≈ 22.4 µM)
8 | CC(CCc1ccc(OCc2c(F)cc(F)cc2F)cc1)(C(=O)NO)S(C)(=O)=O (stereo not drawn) [Example 293, N-hydroxy-2-methyl-2-(methylsulfonyl)-4-{4-[(2,4,6-trifluorobenzyl)oxy]phenyl}butanamide] | 0.955 nM | 32 µg/mL (≈ 74.2 µM) | 4 µg/mL (≈ 9.27 µM) | 32 µg/mL | 4 µg/mL (≈ 9.27 µM)
9 | CC(CCc1ccc(OCc2ccc(F)cc2F)cc1)(C(=O)NO)S(C)(=O)=O (stereo not drawn) [Example 294, 4-{4-[(2,4-difluorobenzyl)oxy]phenyl}-N-hydroxy-2-methyl-2-(methylsulfonyl)butanamide] | 0.992 nM | 32 µg/mL (≈ 77.4 µM) | 4 µg/mL (≈ 9.67 µM) | 16 µg/mL | 4 µg/mL (≈ 9.67 µM)
10 | CCCCCc1noc(COc2ccc(CCC(C)(C(=O)NO)S(C)(=O)=O)cc2)n1 (stereo not drawn) [Example 295, N-hydroxy-2-methyl-2-(methylsulfonyl)-4-{4-[(3-pentyl-1,2,4-oxadiazol-5-yl)methoxy]phenyl}butanamide] | 12.5 nM | ≥ 64 µg/mL | 32 µg/mL (≈ 72.8 µM) | ≧64 mg/L | ≥ 64 µg/mL
11 | CC(CCc1ccc(OCc2cccc3cccnc23)cc1)(C(=O)NO)S(C)(=O)=O (stereo not drawn) [Example 296, N-hydroxy-2-methyl-2-(methylsulfonyl)-4-[4-(quinolin-8-ylmethoxy)phenyl]butanamide] | 15.8 nM | 32 µg/mL (≈ 74.7 µM) | 8 µg/mL (≈ 18.7 µM) | 16 µg/mL | ≥ 64 µg/mL
12 | CC(CCc1ccc(OCCCOc2ccccc2)cc1)(C(=O)NO)S(C)(=O)=O (stereo not drawn) [Example 297, N-hydroxy-2-methyl-2-(methylsulfonyl)-4-[4-(3-phenoxypropoxy)phenyl]butanamide] | 42.5 nM | 32 µg/mL (≈ 75.9 µM) | 16 µg/mL (≈ 38 µM) | ≧64 mg/L | ≥ 64 µg/mL
13 | CC(CCc1ccc(OCc2nc(-c3cccc(Cl)c3)no2)cc1)(C(=O)NO)S(C)(=O)=O (stereo not drawn) [Example 298, 4-(4-{[3-(3-chlorophenyl)-1,2,4-oxadiazol-5-yl]methoxy}phenyl)-N-hydroxy-2-methyl-2-(methylsulfonyl)butanamide] | 1.66 nM | 16 µg/mL (≈ 33.3 µM) | 16 µg/mL (≈ 33.3 µM) | 32 µg/mL | 32 µg/mL (≈ 66.7 µM)
14 | CC(C)c1ccc(-c2noc(COc3ccc(CCC(C)(C(=O)NO)S(C)(=O)=O)cc3)n2)cc1 (stereo not drawn) [Example 299, N-hydroxy-4-(4-{[3-(4-isopropylphenyl)-1,2,4-oxadiazol-5-yl]methoxy}phenyl)-2-methyl-2-(methylsulfonyl)butanamide] | 3.93 nM | ≥ 64 µg/mL | 16 µg/mL (≈ 32.8 µM) | ≧64 mg/L | ≥ 64 µg/mL
15 | CC(CCc1ccc(OCc2nc(C3CCC3)no2)cc1)(C(=O)NO)S(C)(=O)=O (stereo not drawn) [Example 300, 4-{4-[(3-cyclobutyl-1,2,4-oxadiazol-5-yl)methoxy]phenyl}-N-hydroxy-2-methyl-2-(methylsulfonyl)butanamide] | 7.56 nM | ≥ 64 µg/mL | 16 µg/mL (≈ 37.8 µM) | 32 µg/mL | 32 µg/mL (≈ 75.6 µM)
16 | CC(CCc1ccc(OCc2ccc(C(F)(F)F)cc2)cc1)(C(=O)NO)S(C)(=O)=O (stereo not drawn) [Example 301, N-hydroxy-2-methyl-2-(methylsulfonyl)-4-(4-{[4-(trifluoromethyl)benzyl]oxy}phenyl)butanamide] | 2.08 nM | 4 µg/mL (≈ 8.98 µM) | 4 µg/mL (≈ 8.98 µM) | 8 µg/mL | 8 µg/mL (≈ 18 µM)
17 | Cc1oc(-c2cccc(F)c2)nc1COc1ccc(CCC(C)(C(=O)NO)S(C)(=O)=O)cc1 (stereo not drawn) [Example 302, 4-(4-{[2-(3-fluorophenyl)-5-methyl-1,3-oxazol-4-yl]methoxy}phenyl)-N-hydroxy-2-methyl-2-(methylsulfonyl)butanamide] | 12.5 nM | ≥ 64 µg/mL | 16 µg/mL (≈ 33.6 µM) | ≧64 mg/L | ≥ 64 µg/mL
18 | CC(CCc1ccc(OCc2cccnc2)cc1)(C(=O)NO)S(C)(=O)=O (stereo not drawn) [Example 303, N-hydroxy-2-methyl-2-(methylsulfonyl)-4-[4-(pyridin-3-ylmethoxy)phenyl]butanamide] | 4.58 nM | ≥ 64 µg/mL | ≥ 64 µg/mL | ≧64 mg/L | 16 µg/mL (≈ 42.3 µM)
19 | CC(CCc1ccc(OCc2ccc(-n3cccn3)cc2)cc1)(C(=O)NO)S(C)(=O)=O (stereo not drawn) [Example 304, N-hydroxy-2-methyl-2-(methylsulfonyl)-4-(4-{[4-(1H-pyrazol-1-yl)benzyl]oxy}phenyl)butanamide] | 1.99 nM | 32 µg/mL (≈ 72.1 µM) | 4 µg/mL (≈ 9.02 µM) | 16 µg/mL | 16 µg/mL (≈ 36.1 µM)
20 | CC(CCc1ccc(OCc2nc(-c3cccnc3)no2)cc1)(C(=O)NO)S(C)(=O)=O (stereo not drawn) [Example 305, N-hydroxy-2-methyl-2-(methylsulfonyl)-4-{4-[(3-pyridin-3-yl-1,2,4-oxadiazol-5-yl)methoxy]phenyl}butanamide] | 7.53 nM | ≥ 64 µg/mL | 32 µg/mL (≈ 71.7 µM) | ≧64 mg/L | 32 µg/mL (≈ 71.7 µM)
21 | CCc1ccccc1COc1ccc(CCC(C)(C(=O)NO)S(C)(=O)=O)cc1 (stereo not drawn) [Example 306, 4-{4-[(2-ethylbenzyl)oxy]phenyl}-N-hydroxy-2-methyl-2-(methylsulfonyl)butanamide] | 0.813 nM | 16 µg/mL (≈ 39.5 µM) | 8 µg/mL (≈ 19.7 µM) | 32 µg/mL | 16 µg/mL (≈ 39.5 µM)
22 | CC(CCc1ccc(OCc2ccc(Cl)cc2F)cc1)(C(=O)NO)S(C)(=O)=O (stereo not drawn) [Example 307, 4-{4-[(4-chloro-2-fluorobenzyl)oxy]phenyl}-N-hydroxy-2-methyl-2-(methylsulfonyl)butanamide] | 0.393 nM | 16 µg/mL (≈ 37.2 µM) | 2 µg/mL (≈ 4.65 µM) | 8 µg/mL | 4 µg/mL (≈ 9.3 µM)
23 | CC(CCc1ccc(OCc2nc(-c3ccccc3)no2)cc1)(C(=O)NO)S(C)(=O)=O (stereo not drawn) [Example 308, N-hydroxy-2-methyl-2-(methylsulfonyl)-4-{4-[(3-phenyl-1,2,4-oxadiazol-5-yl)methoxy]phenyl}butanamide] | 2.56 nM | ≥ 64 µg/mL | 4 µg/mL (≈ 8.98 µM) | 16 µg/mL | 32 µg/mL (≈ 71.8 µM)
24 | CC(CCc1ccc(OCc2ccc(S(C)(=O)=O)cc2)cc1)(C(=O)NO)S(C)(=O)=O (stereo not drawn) [Example 309, N-hydroxy-2-methyl-2-(methylsulfonyl)-4-(4-{[4-(methylsulfonyl)benzyl]oxy}phenyl)butanamide] | 1.21 nM | ≥ 64 µg/mL | 8 µg/mL (≈ 17.6 µM) | 16 µg/mL | 8 µg/mL (≈ 17.6 µM)
